Measurements taken from article PMC10041525, “New Dual Inhibitors of Bacterial Topoisomerases with Broad-Spectrum Antibacterial Activity and In Vivo Efficacy against Vancomycin-Intermediate Staphylococcus aureus” (Journal of Medicinal Chemistry, 2023).

Tested on: 100 A. baumannii strains (50 MDR, 50 non-MDR)
Assay: MIC broth microdilution at IHMA Europe, panel of 100 strains
Type: cell-based
Details: Acinetobacter baumannii

## C[C@H]1COc2c(N3CCN(C)CC3)c(F)cc3c(=O)c(C(=O)O)cn1c23.C[C@H]1COc2c(N3CCN(C)CC3)c(F)cc3c(=O)c(C(=O)O)cn1c23.O [Levofloxacin, levofloxacin]
A. baumannii IHMA 1769393, Lithuania 2018, Non-MDR
  MIC: ≤ 0.25 µg/mL
A. baumannii IHMA 1769782, Israel 2018, MDR
  MIC: 4 µg/mL
A. baumannii IHMA 1769910, Israel 2018, Non-MDR
  MIC: ≤ 0.25 µg/mL
A. baumannii IHMA 1790317, Czech Republic 2018, Non-MDR
  MIC: ≤ 0.25 µg/mL
A. baumannii IHMA 1790916, Romania 2018, Non-MDR
  MIC: ≤ 0.25 µg/mL
A. baumannii IHMA 1791877, Israel 2018, MDR
  MIC: 4 µg/mL
A. baumannii IHMA 1792961, Jordan 2018, MDR
  MIC: 8 µg/mL
A. baumannii IHMA 1795669, Tunisia 2018, Non-MDR
  MIC: ≤ 0.25 µg/mL
A. baumannii IHMA 1814276, Lebanon 2018, MDR
  MIC: 16 µg/mL
A. baumannii IHMA 1815198, Kuwait 2018, MDR
  MIC: 16 µg/mL
A. baumannii IHMA 1815856, Israel 2018, MDR
  MIC: 8 µg/mL
A. baumannii IHMA 1821468, South Africa 2018, Non-MDR
  MIC: ≤ 0.25 µg/mL
A. baumannii IHMA 1829500, Georgia 2018, Non-MDR
  MIC: ≤ 0.25 µg/mL
A. baumannii IHMA 1830924, United Kingdom 2018, Non-MDR
  MIC: ≤ 0.25 µg/mL
A. baumannii IHMA 1849819, Kuwait 2018, MDR
  MIC: 16 µg/mL
A. baumannii IHMA 1849829, Kuwait 2018, Non-MDR
  MIC: ≤ 0.25 µg/mL
A. baumannii IHMA 1857118, Slovenia 2018, Non-MDR
  MIC: ≤ 0.25 µg/mL
A. baumannii IHMA 1863631, France 2018, Non-MDR
  MIC: ≤ 0.25 µg/mL
A. baumannii IHMA 1870054, United States 2018, Non-MDR
  MIC: ≤ 0.25 µg/mL
A. baumannii IHMA 1884428, Italy 2018, Non-MDR
  MIC: ≤ 0.25 µg/mL
A. baumannii IHMA 1884990, Germany 2018, Non-MDR
  MIC: ≤ 0.25 µg/mL
A. baumannii IHMA 1900538, Turkey 2018, Non-MDR
  MIC: ≤ 0.25 µg/mL
A. baumannii IHMA 1913773, Kenya 2018, Non-MDR
  MIC: ≤ 0.25 µg/mL
A. baumannii IHMA 1926285, Qatar 2018, Non-MDR
  MIC: ≤ 0.25 µg/mL
A. baumannii IHMA 1926288, Qatar 2018, MDR
  MIC: > 16 µg/mL
A. baumannii IHMA 1957343, Portugal 2019, Non-MDR
  MIC: ≤ 0.25 µg/mL
A. baumannii IHMA 1963732, Turkey 2019, MDR
  MIC: 16 µg/mL
A. baumannii IHMA 1967860, Spain 2019, Non-MDR
  MIC: ≤ 0.25 µg/mL
A. baumannii IHMA 1971673, Latvia 2019, MDR
  MIC: 16 µg/mL
A. baumannii IHMA 1975075, Israel 2019, Non-MDR
  MIC: ≤ 0.25 µg/mL
A. baumannii IHMA 1977077, Kuwait 2019, Non-MDR
  MIC: ≤ 0.25 µg/mL
A. baumannii IHMA 1983151, Greece 2019, MDR
  MIC: 8 µg/mL
A. baumannii IHMA 1984665, Lithuania 2019, MDR
  MIC: 16 µg/mL
A. baumannii IHMA 1986678, Turkey 2019, Non-MDR
  MIC: ≤ 0.25 µg/mL
A. baumannii IHMA 1986738, Turkey 2019, MDR
  MIC: 16 µg/mL
A. baumannii IHMA 1987162, Croatia 2019, MDR
  MIC: 8 µg/mL
A. baumannii IHMA 1993615, Turkey 2019, MDR
  MIC: 8 µg/mL
A. baumannii IHMA 1994284, Italy 2019, MDR
  MIC: > 16 µg/mL
A. baumannii IHMA 1995161, Czech Republic 2019, Non-MDR
  MIC: ≤ 0.25 µg/mL
A. baumannii IHMA 1997936, Morocco 2019, Non-MDR
  MIC: ≤ 0.25 µg/mL
A. baumannii IHMA 1999178, Belgium 2019, Non-MDR
  MIC: ≤ 0.25 µg/mL
A. baumannii IHMA 2003279, Turkey 2019, MDR
  MIC: 8 µg/mL
A. baumannii IHMA 2014367, Jordan 2019, Non-MDR
  MIC: ≤ 0.25 µg/mL
A. baumannii IHMA 2014931, South Africa 2019, Non-MDR
  MIC: ≤ 0.25 µg/mL
A. baumannii IHMA 2019315, Romania 2019, Non-MDR
  MIC: ≤ 0.25 µg/mL
A. baumannii IHMA 2020360, Croatia 2019, MDR
  MIC: 16 µg/mL
A. baumannii IHMA 2031511, Greece 2019, Non-MDR
  MIC: ≤ 0.25 µg/mL
A. baumannii IHMA 2031524, Greece 2019, MDR
  MIC: 4 µg/mL
A. baumannii IHMA 2034657, Tunisia 2019, Non-MDR
  MIC: ≤ 0.25 µg/mL
A. baumannii IHMA 2035089, Serbia 2019, MDR
  MIC: 16 µg/mL
A. baumannii IHMA 2035134, Serbia 2019, Non-MDR
  MIC: ≤ 0.25 µg/mL
A. baumannii IHMA 2038976, Hungary 2019, MDR
  MIC: 8 µg/mL
A. baumannii IHMA 2051503, Serbia 2019, MDR
  MIC: 16 µg/mL
A. baumannii IHMA 2058329, Slovenia 2019, Non-MDR
  MIC: ≤ 0.25 µg/mL
A. baumannii IHMA 2065587, France 2019, Non-MDR
  MIC: ≤ 0.25 µg/mL
A. baumannii IHMA 2099294, United Kingdom 2019, Non-MDR
  MIC: ≤ 0.25 µg/mL
A. baumannii IHMA 2129256, Qatar 2019, Non-MDR
  MIC: ≤ 0.25 µg/mL
A. baumannii IHMA 2154584, Israel 2020, MDR
  MIC: 8 µg/mL
A. baumannii IHMA 2155340, Kenya 2020, MDR
  MIC: 16 µg/mL
A. baumannii IHMA 2156634, Turkey 2020, MDR
  MIC: 16 µg/mL
A. baumannii IHMA 2156709, Turkey 2020, MDR
  MIC: 16 µg/mL
A. baumannii IHMA 2157614, Australia 2020, Non-MDR
  MIC: ≤ 0.25 µg/mL
A. baumannii IHMA 2177232, Lithuania 2020, MDR
  MIC: 16 µg/mL
A. baumannii IHMA 2177489, Lithuania 2020, MDR
  MIC: 16 µg/mL
A. baumannii IHMA 2178574, Ukraine 2020, Non-MDR
  MIC: ≤ 0.25 µg/mL
A. baumannii IHMA 2180134, Malaysia 2020, Non-MDR
  MIC: 0.5 µg/mL
A. baumannii IHMA 2180142, Malaysia 2020, MDR
  MIC: 4 µg/mL
A. baumannii IHMA 2181370, Morocco 2020, MDR
  MIC: 8 µg/mL
A. baumannii IHMA 2183729, Argentina 2020, MDR
  MIC: 8 µg/mL
A. baumannii IHMA 2183849, Argentina 2020, Non-MDR
  MIC: ≤ 0.25 µg/mL
A. baumannii IHMA 2184382, Japan 2020, Non-MDR
  MIC: ≤ 0.25 µg/mL
A. baumannii IHMA 2193375, Venezuela 2020, MDR
  MIC: 8 µg/mL
A. baumannii IHMA 2193485, Venezuela 2020, Non-MDR
  MIC: ≤ 0.25 µg/mL
A. baumannii IHMA 2193607, Venezuela 2020, MDR
  MIC: 8 µg/mL
A. baumannii IHMA 2195460, Italy 2020, MDR
  MIC: 16 µg/mL
